Experimental data taken from patent publication US8119695B2, “Compounds and methods for treating breast cancer and other diseases” (City of Hope, priority 2003, dated 2012).
Several values for one entry are separate records, joined by “and”; a condition that tells them apart may be missing. Equal entries are not always repeated. Where two headings read alike, the source gives them in different places.

Key:
Assay type in all cases: cell-based
ERE-TK-luc = ERE-TK-luc reporter without receptor, E2 100 nM; conditions: for Fold Activation: None 1.00
ERRγ (GAL-ERRg) = test: MH100x4 luciferase reporter with GAL-ERRg; design: Reporter Activity: unit not given here
Description: (§1) MH100x4 is a luciferase reporter with four copies of a GAL4 […] response element. GAL-L refers to the ligand-binding domain of the indicated receptor fused to the C-terminus of the GAL4 DNA binding domain.

ERRα (GAL-ERRa) = test: MH100x4 luciferase reporter with GAL-ERRa; design: Reporter Activity: unit not given here
Description: as §1

ERRβ (GAL-L-ERRb) = target: T1, ERRβ (GAL-L-ERRb) (Homo sapiens, UniProt O95718); test: MH100x4 luciferase reporter with GAL-L-ERRb; design: Reporter Activity: unit not given here
T1 construct: expressed in transfected cells
T1 sequence (O95718 208-432 limits assumed): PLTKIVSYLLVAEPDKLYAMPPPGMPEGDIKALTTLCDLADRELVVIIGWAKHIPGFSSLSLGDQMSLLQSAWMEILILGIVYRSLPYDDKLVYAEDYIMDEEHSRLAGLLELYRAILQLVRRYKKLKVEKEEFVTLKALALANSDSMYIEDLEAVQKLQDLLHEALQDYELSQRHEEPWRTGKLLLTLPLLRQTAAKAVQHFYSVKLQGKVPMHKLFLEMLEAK
Description: as §1

MH100x4 = MH100x4 luciferase reporter without receptor
Description: as §1

ERRs = test: repression / antagonism of ERRs; conditions: result in words
ERα (ERa) = target: T2, ERα (ERa) (Homo sapiens, UniProt P03372); test: ERE-TK-luc reporter with ERa, E2 100 nM; conditions: Table 6, None 3.43
T2 construct: expressed in transfected cells
T2 sequence (P03372 1-595): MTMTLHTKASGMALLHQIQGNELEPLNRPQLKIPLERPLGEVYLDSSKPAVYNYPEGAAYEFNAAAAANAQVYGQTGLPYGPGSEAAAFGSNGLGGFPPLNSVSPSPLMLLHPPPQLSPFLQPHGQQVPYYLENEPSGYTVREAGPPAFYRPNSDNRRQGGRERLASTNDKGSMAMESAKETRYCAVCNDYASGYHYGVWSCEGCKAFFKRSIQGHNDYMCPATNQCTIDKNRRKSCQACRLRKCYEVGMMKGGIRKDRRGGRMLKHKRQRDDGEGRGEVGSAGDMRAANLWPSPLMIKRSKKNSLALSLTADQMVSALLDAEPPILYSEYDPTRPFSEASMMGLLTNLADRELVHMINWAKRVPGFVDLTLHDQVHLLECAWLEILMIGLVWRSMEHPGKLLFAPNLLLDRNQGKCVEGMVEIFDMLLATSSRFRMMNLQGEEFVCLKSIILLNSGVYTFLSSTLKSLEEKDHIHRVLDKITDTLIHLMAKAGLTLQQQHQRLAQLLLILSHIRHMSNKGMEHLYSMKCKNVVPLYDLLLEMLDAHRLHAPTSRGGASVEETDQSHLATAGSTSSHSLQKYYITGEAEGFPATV

ERβ (ERb) = target: T3, ERβ (ERb) (Homo sapiens, UniProt Q92731); test: ERE-TK-luc reporter with ERb, E2 100 nM; conditions: Table 6, None 2.88
T3 construct: expressed in transfected cells
T3 sequence (Q92731 whole entry, species assumed): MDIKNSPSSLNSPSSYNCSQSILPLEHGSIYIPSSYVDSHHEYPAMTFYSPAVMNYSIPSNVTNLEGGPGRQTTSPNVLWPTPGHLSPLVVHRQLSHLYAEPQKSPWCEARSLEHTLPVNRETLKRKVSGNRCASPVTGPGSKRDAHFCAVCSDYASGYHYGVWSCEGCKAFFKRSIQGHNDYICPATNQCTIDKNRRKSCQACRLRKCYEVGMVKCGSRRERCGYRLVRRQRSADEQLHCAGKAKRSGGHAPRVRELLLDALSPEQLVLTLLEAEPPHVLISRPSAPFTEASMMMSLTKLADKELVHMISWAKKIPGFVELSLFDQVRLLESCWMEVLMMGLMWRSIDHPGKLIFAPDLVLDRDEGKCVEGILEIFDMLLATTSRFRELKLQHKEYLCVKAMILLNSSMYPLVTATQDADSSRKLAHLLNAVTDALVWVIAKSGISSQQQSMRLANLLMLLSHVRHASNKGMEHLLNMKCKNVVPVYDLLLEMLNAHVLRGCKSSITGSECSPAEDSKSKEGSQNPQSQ

[1] = Table 2, dose 5 (unit not given), None 1.00
[2] = Table 2, dose 5 (unit not given), None 1.25
[3] = Table 2, dose 5 (unit not given), None 8.54
[4] = Table 2, dose 5 (unit not given), None 1.44
[5] = Table 2, dose 5 (unit not given), None 0.49
[6] = Table 3, dose 2.5 (unit not given), None 1
[7] = Table 3, dose 2.5 (unit not given), None 2.2
[8] = Table 3, dose 2.5 (unit not given), None 8.18
[9] = Table 3, dose 2.5 (unit not given), None 2.38
[10] = E2 100 nM + DY 40, head 0 μM (1st)
[11] = E2 100 nM + DY 40, head 0 μM (2nd)

## CC/C(=C(\c1ccc(O)cc1)c1ccc(OCCN(C)C)cc1)c1ccccc1 [4-OH Tamoxifen, (Z)-4-hydroxytamoxifen, reference compound]
ERE-TK-luc
  Reporter Activity: 1.2 and 0.98 and 1.58 and 1.48 and 1.61 and 1.34

## C=CCOc1ccc(C(CC)=C(CC)c2ccc(O)c(CC=C)c2)cc1 [DY21]
ERRγ (GAL-ERRg); [1]
  Fold Activation: 0.57
ERRγ (GAL-ERRg); [2]
  Reporter Activity: 0.71
ERRα (GAL-ERRa); [1]
  Fold Activation: 0.51
ERRα (GAL-ERRa); [3]
  Reporter Activity: 4.34
ERRβ (GAL-L-ERRb); [1]
  Fold Activation: 0.45
ERRβ (GAL-L-ERRb); [4]
  Reporter Activity: 0.65
MH100x4; [5]
  Reporter Activity: 0.31
MH100x4; [1]
  Fold Activation: 0.63

## C=CCc1cc(C(CC)=C(CC)c2ccc(O)c(CC=C)c2)ccc1O [DY22]
ERRγ (GAL-ERRg); [1]
  Fold Activation: 0.50
ERRγ (GAL-ERRg); [2]
  Reporter Activity: 0.63
ERRα (GAL-ERRa); [1]
  Fold Activation: 0.39
ERRα (GAL-ERRa); [3]
  Reporter Activity: 3.35
ERRβ (GAL-L-ERRb); [1]
  Fold Activation: 0.44
ERRβ (GAL-L-ERRb); [4]
  Reporter Activity: 0.64
MH100x4; [5]
  Reporter Activity: 0.28
MH100x4; [1]
  Fold Activation: 0.57

## CCC(=C(c1ccc(O)cc1)c1ccc(O)cc1)c1ccccc1 [DY25, 1,1-Bis(4-hydroxyphenyl)-2-phenylbut-1-ene]
ERRs
  repression of ERRs: does not repress ERRs

## Oc1ccc(C(=C(CCCl)c2ccccc2)c2ccc(O)cc2)cc1 [DY30]
ERRγ (GAL-ERRg); [6]
  Fold Activation: 0.68
ERRγ (GAL-ERRg); [7]
  Reporter Activity: 1.5
ERRα (GAL-ERRa); [6]
  Fold Activation: 1.03
ERRα (GAL-ERRa); [8]
  Reporter Activity: 8.46
ERRβ (GAL-L-ERRb); [6]
  Fold Activation: 0.86
ERRβ (GAL-L-ERRb); [9]
  Reporter Activity: 2.04
MH100x4; Table 3, dose 2.5 (unit not given), None 0.57
  Reporter Activity: 0.56
MH100x4; [6]
  Fold Activation: 0.98
ERRs
  repression of ERRs: does not repress ERRs

## CC(C)C(=C(c1ccc(O)cc1)c1ccc(O)cc1)c1ccccc1 [DY34, 1,1-Bis(4-hydroxyphenyl)-2-phenylbut-3-methyl-1-ene]
ERRγ (GAL-ERRg); [6]
  Fold Activation: 0.61
ERRγ (GAL-ERRg); [7]
  Reporter Activity: 1.35
ERRα (GAL-ERRa); [6]
  Fold Activation: 1.01
ERRα (GAL-ERRa); [8]
  Reporter Activity: 8.24
ERRβ (GAL-L-ERRb); [6]
  Fold Activation: 0.48
ERRβ (GAL-L-ERRb); [9]
  Reporter Activity: 1.15
ERRs
  repression of ERRs: does not repress ERRs

## CCCC(=C(c1ccc(O)cc1)c1ccc(O)cc1)c1ccccc1 [DY37]
ERRs
  repression of ERRs: does not repress ERRs

## CC(=O)Oc1ccc(/C(=C(/c2ccccc2)C(C)C)c2ccc(OCCN(C)C)cc2)cc1 [DY40, (E,Z)-4-{1-[4-(2-dimethylamino-ethoxy)-phenyl]-3-methyl-2-phenyl-but-1-enyl}-phenyl acetate]
ERRγ (GAL-ERRg)
  inhibition of the activity of ERRγ: inhibit the activity
  potency antagonizing ERRγ relative to 4-hydroxytamoxifen: about 30 fold
ERα (ERa); E2 100 nM + DY 40 0.01 μM
  Reporter Activity: 5.07
ERα (ERa); E2 100 nM + DY 40 0.03 μM
  Reporter Activity: 2.42
ERα (ERa); E2 100 nM + DY 40 0.1 μM
  Reporter Activity: 1.97
ERα (ERa); E2 100 nM + DY 40 0.3 μM
  Reporter Activity: 1.32
ERα (ERa); [10]
  Reporter Activity: 13.55
ERα (ERa); [11]
  Reporter Activity: 8.57
ERRα (GAL-ERRa); Table 4, DY40 dose head 0 (1st of 3), None 1.23
  Fold Activation: 1.24
ERRα (GAL-ERRa); Table 4, DY40 dose head 0 (1st of 3), None 34.05
  Reporter Activity: 34.34
ERRα (GAL-ERRa); Table 4, DY40 dose head 0 (2nd of 3), None 1.23
  Fold Activation: 1.17
ERRα (GAL-ERRa); Table 4, DY40 dose head 0 (2nd of 3), None 34.05
  Reporter Activity: 32.4
ERRα (GAL-ERRa); Table 4, DY40 dose head 0 (3rd of 3), None 1.23
  Fold Activation: 1.23
ERRα (GAL-ERRa); Table 4, DY40 dose head 0 (3rd of 3), None 34.05
  Reporter Activity: 34
ERRα (GAL-ERRa); Table 4, dose 0.1 (unit not given), None 1/1.23
  Fold Activation: 1.3
ERRα (GAL-ERRa); Table 4, dose 0.1 (unit not given), None 27.7/34.05
  Reporter Activity: 37
ERRα (GAL-ERRa); Table 4, dose 0.3 (unit not given), None 1/1.23
  Fold Activation: 1.47
ERRα (GAL-ERRa); Table 4, dose 0.3 (unit not given), None 27.7/34.05
  Reporter Activity: 40.8
ERRα (GAL-ERRa); Table 4, dose 1 (unit not given), None 1/1.23
  Fold Activation: 0.98
ERRα (GAL-ERRa); Table 4, dose 1 (unit not given), None 27.7/34.05
  Reporter Activity: 27.3
ERE-TK-luc; Table 6, E2 100 nM + DY 40 0.01 μM
  Fold Activation: 1.03
ERE-TK-luc; Table 6, E2 100 nM + DY 40 0.01 μM, None 1.44
  Reporter Activity: 1.48
ERE-TK-luc; Table 6, E2 100 nM + DY 40 0.03 μM
  Fold Activation: 0.85
ERE-TK-luc; Table 6, E2 100 nM + DY 40 0.03 μM, None 1.44
  Reporter Activity: 1.22
ERE-TK-luc; Table 6, E2 100 nM + DY 40 0.1 μM
  Fold Activation: 0.69
ERE-TK-luc; Table 6, E2 100 nM + DY 40 0.1 μM, None 1.44
  Reporter Activity: 0.99
ERE-TK-luc; Table 6, E2 100 nM + DY 40 0.3 μM
  Fold Activation: 0.47
ERE-TK-luc; Table 6, E2 100 nM + DY 40 0.3 μM, None 1.44
  Reporter Activity: 0.67
ERE-TK-luc; Table 6, E2 100 nM + DY 40, head 0 μM (1st)
  Fold Activation: 0.90
ERE-TK-luc; Table 6, E2 100 nM + DY 40, head 0 μM (1st), None 1.44
  Reporter Activity: 1.29
ERE-TK-luc; Table 6, E2 100 nM + DY 40, head 0 μM (2nd)
  Fold Activation: 0.81
ERE-TK-luc; Table 6, E2 100 nM + DY 40, head 0 μM (2nd), None 1.44
  Reporter Activity: 1.17
ERRβ (GAL-L-ERRb); Table 4, DY40 dose head 0 (1st of 3), None 1.2
  Fold Activation: 1.33
ERRβ (GAL-L-ERRb); Table 4, DY40 dose head 0 (1st of 3), None 8.67
  Reporter Activity: 9.61
ERRβ (GAL-L-ERRb); Table 4, DY40 dose head 0 (2nd of 3), None 1.2
  Fold Activation: 0.92
ERRβ (GAL-L-ERRb); Table 4, DY40 dose head 0 (2nd of 3), None 8.67
  Reporter Activity: 6.61
ERRβ (GAL-L-ERRb); Table 4, DY40 dose head 0 (3rd of 3), None 1.2
  Fold Activation: 0.7
ERRβ (GAL-L-ERRb); Table 4, DY40 dose head 0 (3rd of 3), None 8.67
  Reporter Activity: 5.07
ERRβ (GAL-L-ERRb); Table 4, dose 0.1 (unit not given), None 1/1.2
  Fold Activation: 0.2
ERRβ (GAL-L-ERRb); Table 4, dose 0.1 (unit not given), None 7.21/8.67
  Reporter Activity: 1.4
ERRβ (GAL-L-ERRb); Table 4, dose 0.3 (unit not given), None 1/1.2
  Fold Activation: 0.1
ERRβ (GAL-L-ERRb); Table 4, dose 0.3 (unit not given), None 7.21/8.67
  Reporter Activity: 0.73
ERRβ (GAL-L-ERRb); Table 4, dose 1 (unit not given), None 1/1.2
  Fold Activation: 0.08
ERRβ (GAL-L-ERRb); Table 4, dose 1 (unit not given), None 7.21/8.67
  Reporter Activity: 0.59
ERRβ (GAL-L-ERRb); greater than 4-hydroxytamoxifen
  potency antagonizing ERRβ relative to 4-hydroxytamoxifen: about 30 fold
ERRβ (GAL-L-ERRb); result in words
  inhibition of the activity of ERRβ: inhibit the activity
ERβ (ERb); E2 100 nM + DY 40 0.01 μM
  Reporter Activity: 3.19
ERβ (ERb); E2 100 nM + DY 40 0.03 μM
  Reporter Activity: 2.36
ERβ (ERb); E2 100 nM + DY 40 0.1 μM
  Reporter Activity: 1.58
ERβ (ERb); E2 100 nM + DY 40 0.3 μM
  Reporter Activity: 1.09
ERβ (ERb); [10]
  Reporter Activity: 9.37
ERβ (ERb); [11]
  Reporter Activity: 6.03

## C[C@]12CC[C@@H]3c4ccc(O)cc4CC[C@H]3[C@@H]1CC[C@@H]2O [E2, estradiol, reference compound]
ERE-TK-luc
  Reporter Activity: 1.13
ERE-TK-luc; Table 6, E2 100 nM alone (no dose head), None 1.44
  Reporter Activity: 1.2
